What all share (format): cell-based
One assay concerns the target T1, (α4)3(β2)2 nAChR (Homo sapiens, UniProt P17787+P43681).
T1 construct: expressed in transfected cells; host or cells: Xenopus laevis oocytes injected with cRNA, 8:1 α4:β2
The experiment in a line: Two-electrode voltage-clamp whole-cell currents, Xenopus oocytes expressing WT (α4)3(β2)2 nAChR. As to the method: (§1) Oocytes-positive female Xenopus laevis were purchased from NASCO, and all procedures were performed according to an animal use protocol approved by the Institutional Animals Care and Use Committee of The University of Texas Health Science Center at Tyler. Ovarian lobules were surgically harvested, treated with collagenase type 2, and Stage V and VI oocytes were visually selected and maintained at 18 °C in modified ND96-gentamicin buffer (96 mM NaCl, 2 mM KCl, 1.8 mM CaCl2, 1 mM MgCl2, 5 mM Hepes, and 50 μg/ml gentamicin, pH 7.6).
(§2) pSP64 Poly(A) plasmids with cDNA encoding for human α4 or β2 nAChR subunit were used to prepare cRNA transcripts suitable for oocyte expression. The plasmids were linearized with AseI (hα4) and PvuII (hβ2), then cRNA transcripts were prepared in vitro using mMESSAGE mMACHINE high yield-capped RNA transcription kits (Ambion, Thermo Fisher Scientific), purified on NucAway Spin column (Invitrogen, Thermo Fisher Scientific), and stored at −80 °C until used. Point mutations within the plasmid encoding the α4 nAChR subunit were introduced using QuikChange II Site-Directed Mutagenesis Kit (Agilent Technologies), as described previously ([28]). To generate amino acid substitutions (K64T, E66I, H116V, H116L, and H116A), two custom-designed complementary oligos containing the desired mutation were used (Integrated DNA Technologies). The forward primers were as the following with the codon for mutated amino acids are underlined and nucleotide(s) changes are bolded and italicized:
(§3) The oocytes were injected with 10 to 50 ng of a cRNA mix containing α4 (WT or mutant) and β2 RNAs at ratios of 8:1(α4:β) or 1:8 (α4:β2) to bias expression toward (α4)3(β2)2 or (α4)2(β2)3 nAChRs, respectively. The injection of oocytes with RNAs mixture containing four folds or higher α4 RNA than β2 RNA have been established to express receptor population that is made up of three α4 and two β2 subunits ([9], [12], [28], [43], [44], [45]).
(§4) 24 to 72 h after cRNA injection, Xenopus oocytes were placed in a custom-made recording chamber that is connected to an eight-channel automated perfusion system (Warner Instruments) and perfused with recording buffer (100 mM NaCl, 2 mM KCl, 1 mM CaCl2, 0.8 mM MgCl2, 1 mM EGTA, and 10 mM Hepes, pH 7.5). Unless otherwise specified in figure legends, each recording run included several drug applications (10 s of an agonist with or without CMPI or NS9283) separated by 3 to 4 min buffer wash intervals. Between recording runs, the oocytes were washed with recording buffer for at last 5 min. The oocytes were voltage-clamped at −50 mV using Oocyte Clamp OC-725B (Warner Instruments). The currents were digitized using Digidata 1550A (Axon Instruments, Molecular Devices), and the peak currents were quantified using pCLAMP 10 (Axon Instruments), then normalized and analyzed using Excel 2010 (Microsoft) and SigmaPlot 11.0 (Systat Software). For NS9283 and CMPI potentiation of agonist-induced responses, the peak currents were normalized to current elicited by agonist alone applied within the same recording run. For the effect of coapplication of 1 μM NS9283 or CMPI on agonist concentration-response curve, the peak currents were normalized to current elicited by saturating concentration of agonist applied within the same recording run. […] I0 = 100 for NS9283 and CMPI potentiation of agonist-induced responses and I0 = 0 for agonist concentration-response experiments. The best-fit values for Imax and EC50 ± SD are presented.

For the next assay, the target named is T2, (α4H116V)3(β2)2 nAChR (Homo sapiens, UniProt P17787+P43681, H142V).
T2 construct: expressed in transfected cells; host or cells: Xenopus laevis oocytes injected with cRNA, 8:1 α4:β2
T2 sequence (P43681 27-627 H142V): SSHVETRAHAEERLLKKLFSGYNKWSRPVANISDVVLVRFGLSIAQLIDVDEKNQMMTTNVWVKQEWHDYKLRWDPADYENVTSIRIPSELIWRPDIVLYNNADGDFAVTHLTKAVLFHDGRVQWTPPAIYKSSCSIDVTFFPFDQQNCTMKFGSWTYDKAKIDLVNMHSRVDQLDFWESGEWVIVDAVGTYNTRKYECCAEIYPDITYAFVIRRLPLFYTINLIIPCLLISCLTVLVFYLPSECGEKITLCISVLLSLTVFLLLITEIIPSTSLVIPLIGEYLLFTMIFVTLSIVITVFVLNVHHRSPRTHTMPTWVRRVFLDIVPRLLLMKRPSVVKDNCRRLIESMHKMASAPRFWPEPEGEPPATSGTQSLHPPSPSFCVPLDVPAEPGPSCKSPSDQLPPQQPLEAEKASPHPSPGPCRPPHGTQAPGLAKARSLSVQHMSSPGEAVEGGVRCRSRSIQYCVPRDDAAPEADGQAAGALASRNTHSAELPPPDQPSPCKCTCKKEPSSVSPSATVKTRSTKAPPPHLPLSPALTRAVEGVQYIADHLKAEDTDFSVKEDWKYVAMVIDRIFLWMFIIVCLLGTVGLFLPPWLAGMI
T2 sequence (P17787 26-502): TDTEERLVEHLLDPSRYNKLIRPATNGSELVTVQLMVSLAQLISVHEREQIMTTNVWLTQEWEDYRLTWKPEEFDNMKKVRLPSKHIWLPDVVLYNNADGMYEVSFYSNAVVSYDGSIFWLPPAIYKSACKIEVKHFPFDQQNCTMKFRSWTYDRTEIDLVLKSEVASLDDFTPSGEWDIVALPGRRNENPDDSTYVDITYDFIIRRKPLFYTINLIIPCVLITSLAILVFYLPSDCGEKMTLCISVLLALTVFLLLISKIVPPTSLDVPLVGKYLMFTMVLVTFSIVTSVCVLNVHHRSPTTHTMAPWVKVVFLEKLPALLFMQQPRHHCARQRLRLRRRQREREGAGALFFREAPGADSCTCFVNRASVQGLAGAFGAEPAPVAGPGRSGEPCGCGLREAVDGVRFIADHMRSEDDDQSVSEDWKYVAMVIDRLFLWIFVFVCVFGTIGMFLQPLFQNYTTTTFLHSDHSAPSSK
The experiment in a line: Two-electrode voltage-clamp, oocytes expressing (α4H116V)3(β2)2 nAChR. As to the method:
as §1, §2, §3
(§5) 24 to 72 h after cRNA injection, Xenopus oocytes were placed in a custom-made recording chamber that is connected to an eight-channel automated perfusion system (Warner Instruments) and perfused with recording buffer (100 mM NaCl, 2 mM KCl, 1 mM CaCl2, 0.8 mM MgCl2, 1 mM EGTA, and 10 mM Hepes, pH 7.5). Unless otherwise specified in figure legends, each recording run included several drug applications (10 s of an agonist with or without CMPI or NS9283) separated by 3 to 4 min buffer wash intervals. Between recording runs, the oocytes were washed with recording buffer for at last 5 min. […] The currents were digitized using Digidata 1550A (Axon Instruments, Molecular Devices), and the peak currents were quantified using pCLAMP 10 (Axon Instruments), then normalized and analyzed using Excel 2010 (Microsoft) and SigmaPlot 11.0 (Systat Software). […]
(In general: Two-electrode voltage clamp is typically applied to oocytes expressing channels or transporters.)

In the next assay the target is T3, (α4H116A)3(β2)2 nAChR (Homo sapiens, UniProt P17787+P43681, H142A).
T3 construct: expressed in transfected cells; host or cells: Xenopus laevis oocytes injected with cRNA, 8:1 α4:β2
T3 sequence (P43681 27-627 H142A): as the sequence (P43681 27-627 H142V) above, with V116A counted along it
T3 sequence (P17787 26-502): as the sequence (P17787 26-502) above
The experiment in a line: Two-electrode voltage-clamp, oocytes expressing (α4H116A)3(β2)2 nAChR. As to the method: as §1, §2, §3, §4

In a further assay the target is T4, (α4H116L)3(β2)2 nAChR (Homo sapiens, UniProt P17787+P43681, H142L).
T4 construct: expressed in transfected cells; host or cells: Xenopus laevis oocytes injected with cRNA, 8:1 α4:β2
T4 sequence (P43681 27-627 H142L): as the sequence (P43681 27-627 H142V) above, with V116L counted along it
T4 sequence (P17787 26-502): as the sequence (P17787 26-502) above
The experiment in a line: Two-electrode voltage-clamp, oocytes expressing (α4H116L)3(β2)2 nAChR. As to the method: as §1, §2, §3, §5

Like-named read-outs stand apart in the source and are kept apart here.

T1 sequence (P43681 27-627): as the sequence (P43681 27-627 H142V) above, with V116H counted along it
T1 sequence (P17787 26-502): as the sequence (P17787 26-502) above

Consider `Cc1c(-c2cc(-c3ccccc3Cl)no2)cnn1C1CCNCC1` [CMPI, 3-(2-chlorophenyl)-5-(5-methyl-1-(piperidin-4-yl)-1H-pyrrazol-4-yl)isoxazole], for which the maximal potentiation on (α4)3(β2)2 nAChR (1 μM TC-2559) was 880 ± 13%; on (α4)3(β2)2 nAChR (10 μM TC-2559) it was 634 ± 94%. Further, the “maximal potentiation equivalent, % of current elicited by 1 mM ACh” value at (α4)3(β2)2 nAChR (1 μM TC-2559 + CMPI) was determined as 44.6%; on (α4)3(β2)2 nAChR (10 μM TC-2559 + CMPI), 48.4%. Also, the “maximal potentiation, % of control” value at (α4)3(β2)2 nAChR (1 μM cytisine) is 716 ± 59%; on (α4)3(β2)2 nAChR (1 μM nicotine), 618 ± 34%. Moreover, the “effect on responses to agonists at subsaturating concentrations” value on (α4)3(β2)2 nAChR (1 μM modulator, ACh, nicotine, cytisine, TC-2559, p < 0.001) is listed as “potentiated”. The “effect on responses to saturating concentrations of the tested agonists” value on (α4)3(β2)2 nAChR (1 μM modulator, except for TC-2559) was “did not potentiate”. Moreover, the “potentiation fold (Ave ± SD), agonist + 1 μM modulator / agonist alone” value on (α4)3(β2)2 nAChR (ACh (1 mM), 1 μM modulator) was determined as 0.81 ± 0.15; on (α4)3(β2)2 nAChR (TC 2559 (30 μM), 1 μM modulator), 6.41 ± 2.15; on (α4H116V)3(β2)2 nAChR (ACh (1 mM)), 0.76 ± 0.05; at (α4H116V)3(β2)2 nAChR (TC 2559 (30 μM)), 3.01 ± 0.39; on (α4H116A)3(β2)2 nAChR (ACh (1 mM)), 1.07 ± 0.13; at (α4H116A)3(β2)2 nAChR (TC 2559 (30 μM)), 0.74 ± 0.13. Besides, the “potentiation fold (Ave ± SD), agonist + 1 μM modulator / agonist alone” value on (α4H116L)3(β2)2 nAChR (ACh (1 mM)) was found to be 0.82 ± 0.05; at (α4H116L)3(β2)2 nAChR (TC 2559 (30 μM)), 4.58 ± 0.24. The EC50 (usually the concentration at which the effect is half-maximal) at (α4)3(β2)2 nAChR (receptors activated by 1 μM cytisine, read-out: EC50 for potentiation) amounted to 340 ± 80 nM; at (α4)3(β2)2 nAChR (receptors activated by 1 μM nicotine, read-out: EC50 for potentiation) it was 270 ± 40 nM; on (α4)3(β2)2 nAChR (responses induced by 1 μM TC-2559, read-out: potentiation EC50) it was 110 ± 10 nM; at (α4)3(β2)2 nAChR (responses induced by 10 μM TC-2559, read-out: potentiation EC50), 90 ± 40 nM; on (α4H116A)3(β2)2 nAChR (normalized to 1 μM TC-2559, read-out: EC50 of potentiation of TC-2559-induced current) it was 200 ± 100 nM. For the same molecule, the “Imax of potentiation, % of control” value on (α4H116A)3(β2)2 nAChR (TC-2559-induced current, normalized to 1 μM TC-2559) is given as 634 ± 77%.

These data come from PMC8715118, “Assessing potentiation of the (α4)3(β2)2 nicotinic acetylcholine receptor by the allosteric agonist CMPI” (The Journal of Biological Chemistry, 2021).
